The source of these data is PubChem BioAssay (NCI).

Test systems include CCRF-CEM leukemia; DLD-1 colon; DMS 114 small cell lung; DMS 273 small cell lung; HCC-2998 colon; HCT-15 colon; HOP-18 NSCLC; KM20L2 colon; P388 leukemia; P388/ADR leukemia; SN12K1 renal; SNB-75 CNS; SNB-78 CNS; BT-549 breast; DU-145 prostate; HS 578T breast; MDA-MB-435; MDA-N; PC-3 prostate; TK-10 renal.
What all share (assay): NCI tumour cell line growth inhibition, 48 h

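Five compound concentrations were applied to cells in 96-well plates for 48 hours; endpoints were derived by simple linear interpolation of the resulting dose-response curve. The concentration for full growth arrest is given as TGI.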 A value given as a limit tells only on which side of the number the result lay.

As to `O=C(NCCCCCCNC(=O)n1cc(F)c(=O)[nH]c1=O)NCCCOCCOCCCNC(=O)C(O)C(O)C(O)C(O)CO` (stereo not given), the TGI with CCRF-CEM leukemia, with DLD-1 colon, with DMS 114 small cell lung, in the experiment on DMS 273 small cell lung, in the experiment on HCC-2998 colon and in the experiment on HCT-15 colon was more than 2500 nM throughout. Also, the TGI in the experiment on HOP-18 NSCLC, in the experiment on KM20L2 colon, with P388 leukemia, in the experiment on P388/ADR leukemia, in the experiment with SN12K1 renal and in the experiment with SNB-75 CNS was more than 2500 nM each time. The same molecule yielded a TGI with SNB-78 CNS of more than 2500 nM.
On to `CCOC(=O)c1sc2nc(SC)nc3c2c1NC(=O)CN3c1cccc(F)c1`, for which the TGI was 21300 nM with BT-549 breast; 52700 nM with DU-145 prostate; 59700 nM in the experiment on HS 578T breast; more than 100000 nM in the experiment with MDA-MB-435; more than 100000 nM in the experiment with MDA-N; 34400 nM with PC-3 prostate. Besides, the TGI with TK-10 renal was 86800 nM.
